Results as given in PMC10017042 (Science Advances, 2023).
Values joined by “and” are separate entries in the source; they are usually repeats but may differ in a detail not shown here. Equal entries are not always repeated. Where two headings read alike, the source gives them in different places.

Columns and labels:
[1] = Plasma drug concentrations (pyrimethamine UPLC-MS/MS, VPA assay, unbound dolutegravir) in trial participants; type: in vivo, human; conditions: for Drug detectable in plasma: day 42 (28 days after end of treatment); for concentration at 6 h / concentration at 14 day: human, plasma, oral; for concentration at 14 day: day 14; for PLWH with VPA plasma levels exceeding the therapeutic window (up to 100 mg/liter): day 7
Protocol: Self-reported adherence was assessed at each study visit, and empty pill strips were collected after the 2-week intervention phase. […] A gradient (0.3 ml/min) with two eluents was used (A: 2 mM ammonium acetate + 0.1% formic acid in water; B: 2 mM ammonium acetate + 0.1% formic acid in methanol). […] For measurement validation, we performed linearity, correctness, LOD and lower LOQ, repeatability, reproducibility, measurement uncertainty, robustness, and carryover. […] Unbound dolutegravir plasma concentrations were quantified with a validated UPLC-MS/MS bioquantification method as previously described ([61]).

BAF complex = BAF complex target gene expression (IL-10, SOCS3, CBX7; control B-ACT) by RT-qPCR in participants; type: in vivo, human
From the text: We reasoned that the effect on the expression of these gene targets at later time points (days 14 and 42) would be less useful as specific biomarker of BAF complex inhibition due to treatment interruptions and potential induction via other pathways. […] These findings are consistent with, and might be the consequence of, the generally lower plasma pyrimethamine Ctrough in participants that received the combined intervention regimen compared to those that received solely pyrimethamine.
RT-qPCR reactions were conducted using GoTaq qPCR Master Mix (Promega) following the manufacturer’s protocol. The following thermal cycling protocol was used for amplification: 3 min at 95°C, followed by 40 cycles of 95°C for 10 s and 60°C for 30 s. Expression data were calculated using the 2^−∆∆Ct methodology ([73]). Cyclophilin A was used as a housekeeping gene for the analysis. The list of primers is available in table S9.

[2] = set-up: method as in PMID 22837004; conditions: assumed for the sampling design; fasted first dose; cited from earlier work
[3] = Clinical safety: adverse events (CTCAE version 4.0) and treatment adjustments; type: in vivo, human; conditions: for Participants who stopped treatment: 14-day intervention, seven participants per arm
Protocol: Hematological parameters and kidney and liver function were monitored before treatment and on days 7, 14, and 42. At each study visit, participants were clinically assessed by the study physician and safety assessments were performed. All participant-reported AE and SAE were evaluated in relation to VPA and pyrimethamine. Severity was graded according to the Common Terminology Criteria for Adverse Events (CTCAE) version 4.0. In the study protocol, a number of stopping rules were defined including a prespecified interim analysis after the inclusion of 14 participants focusing on the number of participants discontinuing study medication during the intervention phase, CD4^+ T cell count <200 cells/μl, possibly drug-related SAE/AE ≥ grade 4, or AIDS-related illness (Centers for Disease Control category C events).

HIV-1 = conditions: for Plasma HIV-1 RNA in the participants not remaining below LOQ: entire 6-week trial period, two on VPA, one on pyrimethamine, one on combination; for Plasma HIV-1 RNA, Day 0, 6hr / Plasma HIV-1 RNA, Day 1 / Plasma HIV-1 RNA, Day 7 / Plasma HIV-1 RNA, Day 10 / Plasma HIV-1 RNA, Day 14 / Plasma HIV-1 RNA, Day 15 / Plasma HIV-1 RNA, Day 21 / Plasma HIV-1 RNA, Day 42 / Plasma HIV-1 RNA, Day 28 / Plasma HIV-1 RNA, Day 0, 0hr: individual participants, one value each, /N; for Plasma HIV-1 RNA, Day 0, 6hr / Plasma HIV-1 RNA, Day 1 / Plasma HIV-1 RNA, Day 7 / Plasma HIV-1 RNA, Day 10 / Plasma HIV-1 RNA, Day 14 / Plasma HIV-1 RNA, Day 15 / Plasma HIV-1 RNA, Day 21 / Plasma HIV-1 RNA, Day 42 / Plasma HIV-1 RNA, Day 28: /P suffix not kept; for Plasma HIV-1 RNA, Day 0, 0hr: pretreatment, /P suffix (genome not detected / detected below quantitation) not kept
From the text: To achieve a constant and the earliest Tmax possible, participants received their first dose of the intervention regimen on day 0 in a fasted state. On day 0, cART and study medication intake were taken under direct supervision of the study staff. The 2-week intervention phase was followed by a 4-week post-intervention phase. Overall, participation involved 11 study visits. To obtain an additional post-intervention phase measurement for the inducible HIV-1 reservoir size, the study was amended and participants were asked to give written consent to an extra blood draw after the 4-week post-intervention phase ended. Plasma HIV-1 RNA levels (COBAS TaqMan; Roche, Basel, Switzerland; LOQ, 20 copies/ml) were monitored at all 11 visits. CD4^+ T cell counts were determined at screening, at the start and end of the intervention phase (days 0 and 14), at day 42, and at the post-intervention phase (≥day 42).

[4] = day 0, 6 hours after first dose relative to pretreatment, arm median
[5] = individual participants, one value each, listed as PYR

CCc1nc(N)nc(N)c1-c1ccc(Cl)cc1 [pyrimethamine]
Median plasma concentration of pyrimethamine with CYP3A inducers ([1]; PLWH on efavirenz- or nevirapine-containing cART): did not have lower
Drug detectable in plasma [1]: No pyrimethamine or VPA was detectable
concentration at 6 h ([1]; 200 mg, Median plasma total pyrimethamine concentration, 6 hours after first dose (200 mg), pyrimethamine alone, seven participants): 1630 ng/mL
concentration at 6 h ([1]; 200 mg, Median pyrimethamine Ctrough by integrase inhibitor exposure, 6 hours, group printed first of 'versus' pair): 1300 ng/mL
concentration at 6 h ([1]; 200 mg, Median pyrimethamine Ctrough by integrase inhibitor exposure, 6 hours, group printed second of 'versus' pair): 1400 ng/mL
concentration at 6 h ([1]; Median plasma total pyrimethamine concentration, 6 hours after first dose, combination arm with VPA): 1160 ng/mL
concentration at 14 day ([1]; Median pyrimethamine Ctrough by integrase inhibitor exposure, uninterrupted pyrimethamine, group printed first): 2800 ng/mL
concentration at 14 day ([1]; Median pyrimethamine Ctrough by integrase inhibitor exposure, uninterrupted pyrimethamine, group printed second): 3200 ng/mL
concentration at 14 day ([1]; Median pyrimethamine Ctrough, combination arm with VPA, four PLWH with uninterrupted exposure): 1990 ng/mL
concentration at 14 day ([1]; Median pyrimethamine Ctrough, monotherapy arm, six PLWH with uninterrupted exposure): 3480 ng/mL
concentration at 14 day ([1]; Pyrimethamine plasma level, individual, LUNA-21 (combination arm), stopped treatment at day 10): 2520 ng/mL
Fold-induction in B-ACTIN gene expression at Day 0, 6 hours relative to Day 0, pretreatment (BAF complex; control gene, individual participants, one value each, listed as PYR): 1.29 and 1.51 and 0.82 and 0.94 (2×) and 0.86 and 1.04
Median fold increase in CBX7 gene expression (BAF complex; [4]): 1.68 fold
Median fold increase in IL-10 gene expression (BAF complex; [4]): 2.55 fold
Median fold increase in SOCS3 gene expression (BAF complex; [4]): 2.53 fold
Fold-induction in CBX7 gene expression at Day 0, 6 hours relative to Day 0, pretreatment (BAF complex; [5]): 1.68 and 1.12 and 12.42 and 4.23 and 2.02 and 1.25 and 1.03
Fold-induction in IL-10 gene expression at Day 0, 6 hours relative to Day 0, pretreatment (BAF complex; [5]): 2.24 and 2.74 and 1.48 and 1.74 and 6.66 and 6.4 and 2.54
Fold-induction in SOCS3 gene expression at Day 0, 6 hours relative to Day 0, pretreatment (BAF complex; [5]): 2.52 and 2.27 and 0.60 and 4.59 and 5.35 and 1.14 and 3.27
Tmax [2]: approximately 4 hours
Adverse events experienced on pyrimethamine (monotherapy and combination arms) of all AEs ([3]; 6-week study duration): 84 of 103
Grade 3 adverse events (number) ([3]; 6-week study duration): two
Participants who stopped treatment [3]: one
Induction of plasma viremia (HIV-1; day 1 time point): no evidence that pyrimethamine induced plasma viremia
Proportion of samples with plasma HIV-1 RNA above the assay detection limit (HIV-1; during the study at the fixed measurements, those with pyrimethamine exposure): 22.2%
Plasma HIV-1 RNA in the participants not remaining below LOQ (HIV-1): < 50 copies/ml
Plasma HIV-1 RNA, Day 0, 6hr (HIV-1): < 20
Plasma HIV-1 RNA, Day 1 (HIV-1): < 20
Plasma HIV-1 RNA, Day 7 (HIV-1): < 20
Plasma HIV-1 RNA, Day 10 (HIV-1): < 20
Plasma HIV-1 RNA, Day 14 (HIV-1): < 20
Plasma HIV-1 RNA, Day 15 (HIV-1): < 20
Plasma HIV-1 RNA, Day 21 (HIV-1): < 20
Plasma HIV-1 RNA, Day 42 (HIV-1): < 20
Plasma HIV-1 RNA, Day 28 (HIV-1; listed as PYR): < 20 (6×) and 20
Plasma HIV-1 RNA, Day 0, 0hr (HIV-1): < 20

CCCC(CCC)C(=O)O [valproic acid]
PLWH with VPA plasma levels exceeding the therapeutic window (up to 100 mg/liter) ([1]; those who continued VPA): three of nine
PLWH with VPA plasma levels exceeding the therapeutic window (up to 100 mg/liter) ([1]; those whose therapy was adjusted for toxicity while receiving VPA): three of the five
Drug detectable in plasma [1]: No pyrimethamine or VPA was detectable
concentration at 6 h ([1]; 30 mg/kg per day (divided into two equal doses), 6 hours, VPA monotherapy, read-out: Median plasma total VPA concentration): 47300 ng/mL
concentration at 14 day ([1]; 30 mg/kg per day, VPA monotherapy, six PLWH with uninterrupted exposure, read-out: Median VPA Ctrough): 84800 ng/mL
concentration at 6 h ([1]; 6 hours, combination treatment with pyrimethamine, read-out: Median plasma total VPA concentration): 47400 ng/mL
concentration at 14 day ([1]; combination treatment, four PLWH with uninterrupted exposure, read-out: Median VPA Ctrough): 113000 ng/mL
mRNA levels of BAF target genes (IL-10, SOCS3, CBX7) (BAF complex; day 0, 6 hours after first dose relative to pretreatment): no increase
Tmax [2]: approximately 4 hours
Participants who stopped treatment [3]: one
Plasma HIV-1 RNA in the participants not remaining below LOQ (HIV-1): < 50 copies/ml
Plasma HIV-1 RNA, Day 0, 6hr (HIV-1): < 20
Plasma HIV-1 RNA, Day 7 (HIV-1): < 20
Plasma HIV-1 RNA, Day 10 (HIV-1): < 20
Plasma HIV-1 RNA, Day 14 (HIV-1): < 20
Plasma HIV-1 RNA, Day 15 (HIV-1): < 20
Plasma HIV-1 RNA, Day 28 (HIV-1): < 20
Plasma HIV-1 RNA, Day 42 (HIV-1): < 20
Plasma HIV-1 RNA, Day 1 (HIV-1; listed as VPA): < 20 (6×) and 41
Plasma HIV-1 RNA, Day 21 (HIV-1; listed as VPA): < 20 (6×) and 21
Plasma HIV-1 RNA, Day 0, 0hr (HIV-1): < 20
